Literature values as cited in patent US20200061085A1, “COMPOSITION FOR TREATMENT, INHIBITION AND ATTENUATION OF MELANOMA VIRUS AND PREVENTION OF SKIN CANCERS” (priority 2018, published 2020).

Conditions: STS given exogenously, 90 years of cumulative uses (renal, cyanide, eclampsia)

sodium thiosulfate [STS]
fatalities: no fatalities
